Numbered stars: 1 amine (or outer) side, 2 acyl side, 3 side chain; on linkers, the order of the positions; unused ones are H or OH. Bridge positions count the residues as written; N and C are the ends. Square brackets hold non-standard residues; d marks the D form. Peptide text beside a SMILES is read from it. Trp(1-CH2CONHSO2Me) = CS(=O)(=O)NC(=O)Cn1cc(C[C@H](N)C(=O)O)c2ccccc21; X14 = C[C@H](C(=O)O)n1c(=O)n(C[C@H](N[*:1])C(=O)[*:2])c2ccccc21; Trp(7-aza,1-CH2COOH) = N[C@@H](Cc1cn(CC(=O)O)c2ncccc12)C(=O)O; X1 = O=C(O)Cn1c(C(=O)O)c(C[C@H](N[*:1])C(=O)[*:2])c2ccccc21; X17 = O=C([C@H](Cc1cn(Cc2nnn[nH]2)c2ccccc12)N[*:1])[*:2]; X18 = O=C(O)Cn1c(=O)n(C[C@H](N[*:1])C(=O)[*:2])c2ccccc21; Ala(4-isoquinolinyl) = N[C@@H](Cc1cncc2ccccc12)C(=O)O; X5 = O=C(O)Cn1nc(C[C@H](N[*:1])C(=O)[*:2])c2ccccc21; X9 = O=C(O)Cn1cc(CC(N[*:1])C(=O)[*:2])c2cnccc21; X6 = O=C([C@H](Cc1ccc2cnccc2c1)N[*:1])[*:2]; Phe(4-F) = N[C@@H](Cc1ccc(F)cc1)C(=O)O; Hyp = O=C(O)[C@@H]1C[C@@H](O)CN1; NMeNle = CCCC[C@H](NC)C(=O)O; Pen = CC(C)(S)[C@H](N)C(=O)O; Pip = O=C(O)[C@@H]1CCCCN1; NMeA = CN[C@@H](C)C(=O)O; Dab = NCC[C@H](N)C(=O)O; Dap = NC[C@H](N)C(=O)O; Sar = CNCC(=O)O
The molecules below were run against T1, PD-1-Ig binding to PD-L1-TVMV-His (PD-L1-His) (Homo sapiens, UniProt Q9NZQ7) (assay: PD-1/PD-L1 Homogenous Time-Resolved Fluorescence (HTRF) binding assay). Conditions: PD-1-Ig (20 nM)/PD-L1-His (10 nM); range class.
T1 construct: hPDL1 (19-239)-TVMV-His; TVMV protease cleavage site (C); made in house; host or cells: HEK293T cells
From the text: The ability of the macrocyclic peptides of the present disclosure to bind to PD-L1 was investigated using a PD-1/PD-L1 Homogenous Time-Resolved Fluorescence (HTRF) binding assay.
Homogenous Time-Resolved Fluorescence (HTRF) Assays of Binding of Soluble PD-1 to Soluble PD-L1. Soluble PD-1 and soluble PD-L1 refers to proteins with carboxyl-end truncations that remove the transmembrane-spanning regions and are fused to heterologous sequences, specifically the Fc portion of the human immunoglobuling G sequence (Ig) or the hexahistidine epitope tag (His). All binding studies were performed in an HTRF assay buffer consisting of dPBS supplemented with 0.1% (w/v) bovine serum albumin and 0.05% (v/v) Tween-20. For the PD-1-Ig/PD-L1-His binding assay, inhibitors were pre-incubated with PD-L1-His (10 nM final) for 15 m in 4 μl of assay buffer, followed by addition of PD-1-Ig (20 nM final) in 1 μl of assay buffer and further incubation for 15 m. PD-L1 fusion proteins from either human, cynomologous macaques, mouse, or other species were used. HTRF detection was achieved using europium crypate-labeled anti-Ig monoclonal antibody (1 nM final) and allophycocyanin (APC) labeled anti-His monoclonal antibody (20 nM final). Antibodies were diluted in HTRF detection buffer and 5 μl was dispensed on top of binding reaction. The reaction was allowed to equilibrate for 30 minutes and signal (665 nm/620 nm ratio) was obtained using an EnVision fluorometer. Additional binding assays were established between PD-1-Ig/PD-L2-His (20 and 5 nM, respectively), CD80-His/PD-L1-Ig (100 and 10 nM, respectively) and CD80-His/CTLA4-Ig (10 and 5 nM, respectively). Binding/competition studies between biotinylated Compound No. 71 and human PD-L1-His were performed as follows. Macrocyclic peptide inhibitors were pre-incubated with PD-L1-His (10 nM final) for 60 minutes in 4 μl of assay buffer followed by addition of biotinylated Compound No. 71 (0.5 nM final) in 1 μl of assay buffer. Binding was allowed to equilibrate for 30 minutes followed by addition of europium crylated labeled Streptavidin (2.5 pM final) and APC-labeled anti-His (20 nM final) in 5 μl of HTRF buffer. The reaction was allowed to equilibrate for 30 m and signal (665 nm/620 nm ratio) was obtained using an EnVision fluorometer.
Recombinant Proteins. Carboxyl-truncated human PD-1 (amino acids 25-167) with a C-terminal human Ig epitope tag [hPD-1 (25-167)-3S-IG] and human PD-L1 (amino acids 18-239) with a C-terminal His epitope tag [hPD-L1(19-239)-tobacco vein mottling virus protease cleavage site (TVMV)-His] were expressed in HEK293T cells and purified sequentially by recombinant Protein A affinity chromatography and size exclusion chromatography. Human PD-L2-His (Sino Biologicals), CD80-His (Sino Biologicals), CTLA4-Ig (RnD Systems) were all obtained through commercial sources.

T1 sequence (Q9NZQ7 with tags, fused parts or gaps): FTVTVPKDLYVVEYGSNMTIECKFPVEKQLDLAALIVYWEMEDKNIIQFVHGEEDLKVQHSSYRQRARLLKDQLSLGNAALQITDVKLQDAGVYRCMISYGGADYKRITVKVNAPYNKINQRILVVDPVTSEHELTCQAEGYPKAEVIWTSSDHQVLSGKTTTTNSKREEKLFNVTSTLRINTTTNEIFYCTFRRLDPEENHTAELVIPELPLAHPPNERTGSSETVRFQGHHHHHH

SMILES | IC50
CCCC[C@H]1C(=O)N(C)[C@@H](CCCC)C(=O)N[C@@H](CCCNC(=N)N)C(=O)N[C@H](C(=O)NCC(N)=O)CSCC(=O)N[C@@H](Cc2ccc(O)cc2)C(=O)N(C)[C@@H](C)C(=O)N[C@@H](CC(N)=O)C(=O)N2CCC[C@H]2C(=O)N[C@@H](Cc2cnc[nH]2)C(=O)N[C@@H](CC(C)C)C(=O)N2C[C@H](O)C[C@H]2C(=O)N[C@@H](Cc2c[nH]c3ccccc23)C(=O)N[C@@H](CO)C(=O)N[C@@H](Cc2ccc3cnccc3c2)C(=O)N1C [Example 0001] ({CH2CO}-Y[NMeA]NPHL[Hyp]WS[X6][NMeNle][NMeNle]RCG-NH2; thioether N-14) | 100 to 990 nM
CCCC[C@H]1C(=O)N(C)[C@@H](CCCC)C(=O)N[C@@H](CC(C)C)C(=O)N[C@H](C(N)=O)C(C)(C)SCC(=O)N[C@@H](Cc2ccc(O)cc2)C(=O)N2CCCC[C@H]2C(=O)N[C@@H](CC(=O)O)C(=O)N2CCC[C@H]2C(=O)N[C@@H](CN)C(=O)N[C@@H](CCC(=O)O)C(=O)N2C[C@H](O)C[C@H]2C(=O)N[C@@H](Cc2c[nH]c3ccccc23)C(=O)N[C@@H](CCN)C(=O)N[C@@H](Cc2cn(CC(=O)NS(C)(=O)=O)c3ccccc23)C(=O)N1C [Example 1011] ({CH2CO}-Y[Pip]DP[Dap]E[Hyp]W[Dab][Trp(1-CH2CONHSO2Me)][NMeNle][NMeNle]L[Pen]-NH2; thioether N-14) | 1 to 9.9 nM
CCCC[C@H]1C(=O)N(C)[C@@H](CCCC)C(=O)N[C@@H](CC(C)C)C(=O)N[C@H](C(=O)NCC(N)=O)CSCC(=O)N[C@@H](Cc2ccc(O)cc2)C(=O)N(C)[C@@H](C)C(=O)N[C@@H](CC(=O)O)C(=O)N2CCC[C@H]2C(=O)N[C@@H](Cc2cnc[nH]2)C(=O)N[C@@H](CCCCN)C(=O)N2C[C@H](O)C[C@H]2C(=O)N[C@@H](Cc2c[nH]c3ccccc23)C(=O)N[C@@H](CCCCN)C(=O)N[C@@H](Cc2cn(Cc3nnn[nH]3)c3ccccc23)C(=O)N1C [Example 1002] | 1 to 9.9 nM
CCCC[C@H]1C(=O)N(C)[C@@H](CCCC)C(=O)N[C@@H](CC(C)C)C(=O)N[C@H](C(N)=O)C(C)(C)SCC(=O)N[C@@H](Cc2ccc(F)cc2)C(=O)N2CCCC[C@H]2C(=O)N[C@@H](CC(=O)O)C(=O)N2CCC[C@H]2C(=O)N[C@@H](CN)C(=O)N[C@@H](CCC(=O)O)C(=O)N2C[C@H](O)C[C@H]2C(=O)N[C@@H](Cc2c[nH]c3ccccc23)C(=O)N[C@@H](CCN)C(=O)N[C@@H](Cc2cn(CC(=O)NS(C)(=O)=O)c3ccccc23)C(=O)N1C [Example 1003] ({CH2CO}-[Phe(4-F)][Pip]DP[Dap]E[Hyp]W[Dab][Trp(1-CH2CONHSO2Me)][NMeNle][NMeNle]L[Pen]-NH2; thioether N-14) | 1 to 9.9 nM
CCCC[C@H]1C(=O)N(C)[C@@H](CCCC)C(=O)N[C@@H](CCCNC(=N)N)C(=O)N[C@H](C(=O)NCC(N)=O)CSCC(=O)N[C@@H](Cc2ccc(O)cc2)C(=O)N(C)[C@@H](C)C(=O)N[C@@H](CC(N)=O)C(=O)N2CCC[C@H]2C(=O)N[C@@H](Cc2cnc[nH]2)C(=O)N[C@@H](CC(C)C)C(=O)N2C[C@H](O)C[C@H]2C(=O)N[C@@H](Cc2c[nH]c3ccccc23)C(=O)N[C@@H](CO)C(=O)N[C@@H](Cc2cncc3ccccc23)C(=O)N1C [Example 1254] ({CH2CO}-Y[NMeA]NPHL[Hyp]WS[Ala(4-isoquinolinyl)][NMeNle][NMeNle]RCG-NH2; thioether N-14) | 10 to 99 nM

Next, values leading:

IC50 | SMILES
1 to 9.9 nM | CCCC[C@H]1C(=O)N(C)[C@@H](CCCC)C(=O)N[C@@H](CC(C)C)C(=O)N[C@H](C(=O)NCC(N)=O)CSCC(=O)N[C@@H](Cc2ccc(O)cc2)C(=O)N(C)[C@@H](C)C(=O)N[C@@H](CC(N)=O)C(=O)N2CCC[C@H]2C(=O)N[C@@H](CN)C(=O)N[C@@H](CC(C)C)C(=O)N2C[C@H](O)C[C@H]2C(=O)N[C@@H](Cc2c[nH]c3ccccc23)C(=O)N[C@@H](CCN)C(=O)N[C@@H](Cn2c(=O)n([C@H](C)C(=O)O)c3ccccc32)C(=O)N1C [Example 1014] ({CH2CO}-Y[NMeA]NP[Dap]L[Hyp]W[Dab][X14][NMeNle][NMeNle]LCG-NH2; thioether N-14)
10 to 99 nM | CCCC[C@H]1C(=O)N(C)[C@@H](CCCC)C(=O)N[C@@H](CC(C)C)C(=O)N[C@H](C(=O)NCC(N)=O)CSCC(=O)N[C@@H](Cc2ccc(O)cc2)C(=O)N(C)[C@@H](C)C(=O)N[C@@H](CC(N)=O)C(=O)N2CCC[C@H]2C(=O)N[C@@H](CN)C(=O)N[C@@H](CC(C)C)C(=O)N2C[C@H](O)C[C@H]2C(=O)N[C@@H](Cc2c[nH]c3ccccc23)C(=O)N[C@@H](CCN)C(=O)NC(Cc2cn(CC(=O)O)c3ccncc23)C(=O)N1C (stereo partly drawn) [Example 10001] ({CH2CO}-Y[NMeA]NP[Dap]L[Hyp]W[Dab][X9][NMeNle][NMeNle]LCG-NH2; thioether N-14)
> 1000 nM | CCCC[C@H]1C(=O)N(C)[C@@H](CCCC)C(=O)N[C@@H](CC(C)C)C(=O)N[C@H](C(=O)NCC(N)=O)CSCC(=O)N[C@@H](Cc2ccc(O)cc2)C(=O)N(C)[C@@H](C)C(=O)N[C@@H](CC(N)=O)C(=O)N2CCC[C@H]2C(=O)N[C@@H](CN)C(=O)N[C@@H](CC(C)C)C(=O)N2C[C@H](O)C[C@H]2C(=O)N[C@@H](Cc2c[nH]c3ccccc23)C(=O)N[C@@H](CCN)C(=O)N[C@@H](Cc2cn(Cc3nnn[nH]3)c3ccccc23)C(=O)N1C [Example 1020] ({CH2CO}-Y[NMeA]NP[Dap]L[Hyp]W[Dab][X17][NMeNle][NMeNle]LCG-NH2; thioether N-14)
10 to 99 nM | CCCC[C@H]1C(=O)N(C)[C@@H](CCCC)C(=O)N[C@@H](CC(C)C)C(=O)N[C@H](C(N)=O)CSCC(=O)N[C@@H](Cc2ccc(O)cc2)C(=O)N(C)[C@@H](C)C(=O)N[C@@H](CC(N)=O)C(=O)N(C)CC(=O)N[C@@H](CN)C(=O)N[C@@H](CC(C)C)C(=O)N2C[C@H](O)C[C@H]2C(=O)N[C@@H](Cc2c[nH]c3ccccc23)C(=O)N[C@@H](CCN)C(=O)N[C@@H](Cc2c(C(=O)O)n(CC(=O)O)c3ccccc23)C(=O)N1C [Example 1018] ({CH2CO}-Y[NMeA]N[Sar][Dap]L[Hyp]W[Dab][X1][NMeNle][NMeNle]LC-NH2; thioether N-14)
10 to 99 nM | CCCC[C@H]1C(=O)N(C)[C@@H](CCCC)C(=O)N[C@@H](CC(C)C)C(=O)N[C@H](C(=O)NCC(N)=O)CSCC(=O)N[C@@H](Cc2ccc(O)cc2)C(=O)N(C)[C@@H](C)C(=O)N[C@@H](CC(N)=O)C(=O)N2CCC[C@H]2C(=O)N[C@@H](CN)C(=O)N[C@@H](CC(C)C)C(=O)N2C[C@H](O)C[C@H]2C(=O)N[C@@H](Cc2c[nH]c3ccccc23)C(=O)N[C@@H](CCN)C(=O)N[C@@H](Cc2cn(CC(=O)O)c3ncccc23)C(=O)N1C [Example 10505] ({CH2CO}-Y[NMeA]NP[Dap]L[Hyp]W[Dab][Trp(7-aza,1-CH2COOH)][NMeNle][NMeNle]LCG-NH2; thioether N-14)
1 to 9.9 nM | CCCC[C@H]1C(=O)N(C)[C@@H](CCCC)C(=O)N[C@@H](CC(C)C)C(=O)N[C@H](C(=O)NCC(N)=O)CSCC(=O)N[C@@H](Cc2ccc(O)cc2)C(=O)N(C)[C@@H](C)C(=O)N[C@@H](CC(N)=O)C(=O)N2CCC[C@H]2C(=O)N[C@@H](CN)C(=O)N[C@@H](CC(C)C)C(=O)N2C[C@H](O)C[C@H]2C(=O)N[C@@H](Cc2c[nH]c3ccccc23)C(=O)N[C@@H](CCN)C(=O)N[C@@H](Cn2c(=O)n(CC(=O)O)c3ccccc32)C(=O)N1C [Example 1015] ({CH2CO}-Y[NMeA]NP[Dap]L[Hyp]W[Dab][X18][NMeNle][NMeNle]LCG-NH2; thioether N-14)
1 to 9.9 nM | CCCC[C@H]1C(=O)N(C)[C@@H](CCCC)C(=O)N[C@@H](CC(C)C)C(=O)N[C@H](C(=O)NCC(N)=O)CSCC(=O)N[C@@H](Cc2ccc(O)cc2)C(=O)N(C)[C@@H](C)C(=O)N[C@@H](CC(N)=O)C(=O)N2CCC[C@H]2C(=O)N[C@@H](CN)C(=O)N[C@@H](CC(C)C)C(=O)N2C[C@H](O)C[C@H]2C(=O)N[C@@H](Cc2c[nH]c3ccccc23)C(=O)N[C@@H](CCN)C(=O)N[C@@H](Cc2nn(CC(=O)O)c3ccccc23)C(=O)N1C [Example 10500] ({CH2CO}-Y[NMeA]NP[Dap]L[Hyp]W[Dab][X5][NMeNle][NMeNle]LCG-NH2; thioether N-14)

— patent publication US10358463B2, “Immunomodulators” (BRISTOL-MYERS SQUIBB COMPANY, priority 2016, dated 2019)
